From patent US10117943B2, “Synthetic antibody mimetic compounds (SYAMS) targeting cancer, especially prostate cancer” (YALE UNIVERSITY, priority 2013, dated 2018)

Assays:
[1] = biological target: T1, FcγRI (Homo sapiens, UniProt P12314); test: IIA1.6 FcγRI expressing cell binding assay; conditions: biotin-functionalized compound, fluorescent streptavidin
T1 construct: host or cells: IIA1.6 cells
Protocol: Peptide dilutions have been prepared in DMSO usually starting form 1 mM stock solution with further 10 fold dilution. Cells IIa1.6 stably transfected with FcγRIA/γ-chain and non-transfected IIa1.6 cells used as isogenic negative control, were grown to approximately 1.5-2×10^6 cells/mL density, spun down and reconstituted in RPMI 1640 medium without phenol red, supplemented with 10% FBS and Pen/Strep mixture to cell density 1×10^6 cells/mL. A 100 uL aliquot of cells was further transferred into an eppendorf tube and left to cool on ice for 5-10 minutes. Following this 1 uL of peptide dissolved in DMSO was added to the cells, bringing final concentration of DMSO to 1%. After 1 hour incubation on ice with a peptide 5 uL of Streptavidin-Alexafluor 488 (2 mg/mL) was added to the cells and left incubating on ice for 30-60 minutes. After the incubation cells were washed two times with 1 mL of cold RPMI1640 medium without phenol red, supplemented with 10% FBS and Pen/Strep and finally washed once in 1 mL TBS Buffer (150 mM NaCl and 25 mM Tris, pH 7.4). Cells were resuspended in residual TBS buffer (usually ˜100 uL) and analyzed via flow cytometry with detection in the FL1 channel.

[2] = tested on: RM1.PGLS cells; test: Phagocytosis of PSMA expressing RM1.PGLS cells by IFN-γ primed U937 cells; format: cell-based; conditions: IFN-γ primed U937 effectors
Protocol: Target cell passing: Three days before the experiments, a plate of target cells, RM1.PGLS cells were passed into a new flask.
Effector cell priming: Three days before the experiments, a plate of U937 cells (approximately 60% confluent) was passed into a new Petri dish (10 mL colored ADCP media total volume). IFN-γ (20 μL, 100 μg/mL in DPBS) was added, and the cells were maintained in an incubator (37° C., 24 h). The cells were transferred into a Falcon tube, and DiD (19 uL, final concentration=1.9 μM) was added. The cells were maintained in an incubator (37° C., 30 min), pelleted, aspirated, resuspended in colored ADCP media (10 mL), and split equally into two Petri dishes. To each dish were added additional colored ADCP media (5 mL) and IFN-γ (20 μL, 100 μg/mL in DPBS), and the cells were maintained in an incubator (37° C., 24 h).
Target cell preparation: To a plate of target cells (60-80% confluent RM1.PGLS cells 10 mL total media volume) was added DiO (20 μL, final concentration=2 μM). The cells were maintained in an incubator (37° C., 30 min), aspirated, and washed with colored ADCP media (3×10 mL). Colored ADCP media (10 mL) was added. The cells were maintained in an incubator (37° C., 2 h), detached and resuspended in color-free ADCP media at a concentration of 0.5 million cells per mL.
Effector cell preparation: Both dishes of primed U937 cells were transferred into a Falcon tube, pelleted, aspirated, resuspended in color-free ADCP media (10 mL), counted, and diluted with color-free ADCP media to give a final concentration of 2 million cells per mL.
Phagocytosis: All conditions were run in triplicate. For each experiment, into a sterile 2 mL Eppendorf tube were added color-free ADCP media (25 μL) containing either various concentrations of SyAM-Px or ARM-P8/Anti-DNP antibody, target cells (25 μL=12,500 cells), and effector cells (50 μL=100,000 cells), to give an effector-to-target ratio of 8:1. Tubes were gently agitated by hand. The cells were pelleted (2 min, 1100 rpm). The tubes were opened, maintained in an incubator (37° C., 1 h), resuspended by briefly agitating with a vortex, and analyzed by flow cytometry.

[3] = tested on: PSMA coated beads; test: ROS production (superoxide burst, lucigenin) by primed U937 cells against PSMA coated beads; format: cell-based; conditions: PSMA labeled beads, target dependent
Protocol: Three days before the experiments, a plate of U937 cells (approximately 60% confluent) was passed into a new Petri dish (10 mL colored RPMI growth media total volume). IFN-γ (20 μL, 100 μg/mL in DPBS) was added, and the cells were maintained in an incubator (37° C., 24 h). The cells were pelleted after 24 hours and resuspended in 10 mL of IFN-γ (20 uL, 100 ug/mL in DPBS) and maintained in an incubator (37° C., 24 h)
For ROS production cells were resuspended in RPMI growth media (10 mL), and split equally into two Petri dishes. To each dish were added additional colored RPMI growth media (5 mL) and IFN-γ (20 μL, 100 μg/mL in DPBS), and maintained in an incubator (37° C., 24 h)
Primed U937 were suspended in color-free ADCP media at a concentration of 3×10^5 U937 cells and mixed with 10^5 PSMA coated beads and various concentrations of molecules in a 96 well plate in a volume of 90 uL. To each well was added 10 μl of 2.5 mM lucigenin (Tokyo Chemicals) solution to bring the total volume to 100 μl. The plate was centrifuged at 200 rcf for 2 minutes (PLATE SPINNER). The chemiluminescence was then measured at two minute intervals by plate reader (Biotek Synergy 2) for 60 to 90 minutes.

[4] = tested on: RM1.PGLS cells; test: Superoxide burst (lucigenin) by primed U937 cells against RM1.PGLS cells; format: cell-based; conditions: IFN-γ primed U937 effectors
Source text: Since SyAM-P1 was able to induce effector-cell mediated responses against target protein coated beads, the inventors then evaluated if the molecule can elicit the effects against PSMA expressing cells. To that end, the inventors evaluated the SyAM-P1 induced immune responses by primed U937 effector cells against PSMA expressing RM1.PGLS cells. They tested the U937-mediated immune effects by evaluating both superoxide burst and phagocytosis of effector cells, analogous to the protein coated bead experiments. In this experiment, IFN-γ primed U937 cells were incubated with PSMA expressing RM1.PGLS cells, and treated with various concentrations of SyAM-P1. The resulting superoxide burst response was measured using the lucigenin assay (data not shown). Additionally, primed U937 cells (stained with DiD, an FL4 membrane dye) were incubated with target RM1.PGLS cells (stained with […], an FL1 membrane dye), in the presence of various concentrations of SyAM-P 1. The resulting phagocytosis—indicated by FL1 and FL4 double positive cells—was measured using two-color flow-cytometry. As a positive control, ARM-P8 combined with anti-DNP antibodies was utilized. […] The positive response seen with the Arm-P8 control, could potentially be attributed to the ability of antibodies to ligate both FcγRI and FcγRIIA on the immune effector cells, increasing immune signaling and phagocytic responses.

[5] = biological target: T2, FcγRI on IIA1.6 cells and soluble recombinant human PSMA (Homo sapiens, UniProt P12314+Q04609); test: Ternary complex formation between FcγRI expressing IIA1.6 cells and soluble PSMA; format: binding; conditions: probed with phycoerythrin anti-PSMA antibody
T2 construct: soluble recombinant human PSMA; Avi-tag; expressed in transfected cells; host or cells: IIA1.6 cells (FcγRI); PSMA added as soluble recombinant protein
Protocol: The inventors next evaluated SyAM-P1's ability to induce ternary complex formation, using soluble PSMA and FcγRI expressing cells (IIA1.6 cells) (FIG. 3c). The binding of PSMA to the cells was probed with a phycoerythrin anti-PSMA antibody, and was analyzed using flow cytometry.

[6] = biological target: T3, PSMA on RM1.PGLS cells (Homo sapiens, UniProt Q04609); test: Binding to PSMA on RM1.PGLS cells (flow cytometry); conditions: biotin-functionalized compound, fluorescent streptavidin
T3 construct: host or cells: RM1.PGLS cells
Source text: Accordingly, the inventors first synthesized the SyAM-P1 molecule, using Fmoc solid phase peptide synthesis to connect the two moieties (FIG. 2). As a consequence of that chemical synthesis the inventors tried to determine whether linking the two moieties would influence their ability to bind their respective protein targets, in a selective manner (FIG. 3A,B). The inventors thereafter evaluated the ability of the first-generation of SyAM-P molecules, identified as SyAM-P1, to bind PSMA on RM1.PGLS cells (FIG. 3A) or FcγRI on IIA1.6 cells (FIG. 3B). These experiments were conducted using SyAM-P1 molecules that were functionalized with biotin, and the bound SyAM-P1 was detected using a fluorescently labeled streptavidin, via flow-cytometry.
The binding of each SyAm derivative to PSMA was evaluated on PSMA-coated beads. 6 μm streptavidin labeled beads (Polysciences) were incubated with 400 μg/ml recombinant avi-tagged-PSMA protein for 30 minutes. Beads were washed twice with PBS, blocked with 1 mg/ml biotin for 30 minutes and then washed twice with TBS-A. 10^5 beads were incubated with a dilution series of SyAm ranging from 1 μM-100 pM. Streptavidin-Alexa467 (Invitrogen) was added to a final concentration of 3.3 μM. Samples were incubated on ice for 30 minutes, washed twice with DPBS, and evaluated by an Accuri C6 flow cytometer. […]

T3 sequence (Q04609 whole entry): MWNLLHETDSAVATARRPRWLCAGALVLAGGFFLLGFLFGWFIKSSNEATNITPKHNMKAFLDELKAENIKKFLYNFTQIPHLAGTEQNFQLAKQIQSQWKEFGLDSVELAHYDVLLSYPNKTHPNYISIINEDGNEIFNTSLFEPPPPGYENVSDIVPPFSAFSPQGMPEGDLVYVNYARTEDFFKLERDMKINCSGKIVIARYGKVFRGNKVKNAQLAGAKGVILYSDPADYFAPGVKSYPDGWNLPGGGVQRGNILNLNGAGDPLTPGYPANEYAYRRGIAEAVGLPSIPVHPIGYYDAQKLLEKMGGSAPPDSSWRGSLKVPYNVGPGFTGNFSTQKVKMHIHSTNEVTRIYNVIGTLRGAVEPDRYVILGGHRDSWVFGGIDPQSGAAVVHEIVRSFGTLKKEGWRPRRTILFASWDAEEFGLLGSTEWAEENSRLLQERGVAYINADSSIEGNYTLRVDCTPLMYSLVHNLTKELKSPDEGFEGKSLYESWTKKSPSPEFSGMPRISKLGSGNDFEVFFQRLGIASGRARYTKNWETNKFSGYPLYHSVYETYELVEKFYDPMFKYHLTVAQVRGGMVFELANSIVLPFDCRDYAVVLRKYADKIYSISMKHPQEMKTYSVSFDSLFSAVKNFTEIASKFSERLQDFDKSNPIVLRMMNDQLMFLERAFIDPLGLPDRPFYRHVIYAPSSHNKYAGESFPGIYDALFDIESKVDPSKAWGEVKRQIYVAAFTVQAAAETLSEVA
T2 sequence (P12314 16-374): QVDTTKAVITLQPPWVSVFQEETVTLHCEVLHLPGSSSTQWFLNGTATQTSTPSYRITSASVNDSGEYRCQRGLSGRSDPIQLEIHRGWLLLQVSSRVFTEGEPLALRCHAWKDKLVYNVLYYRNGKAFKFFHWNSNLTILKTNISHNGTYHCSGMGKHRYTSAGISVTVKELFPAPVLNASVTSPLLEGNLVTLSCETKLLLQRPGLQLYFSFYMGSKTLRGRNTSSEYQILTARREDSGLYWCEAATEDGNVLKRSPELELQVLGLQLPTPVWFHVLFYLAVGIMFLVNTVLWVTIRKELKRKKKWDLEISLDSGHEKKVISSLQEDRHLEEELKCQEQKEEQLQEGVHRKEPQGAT
T2 sequence (Q04609 44-750 limits assumed): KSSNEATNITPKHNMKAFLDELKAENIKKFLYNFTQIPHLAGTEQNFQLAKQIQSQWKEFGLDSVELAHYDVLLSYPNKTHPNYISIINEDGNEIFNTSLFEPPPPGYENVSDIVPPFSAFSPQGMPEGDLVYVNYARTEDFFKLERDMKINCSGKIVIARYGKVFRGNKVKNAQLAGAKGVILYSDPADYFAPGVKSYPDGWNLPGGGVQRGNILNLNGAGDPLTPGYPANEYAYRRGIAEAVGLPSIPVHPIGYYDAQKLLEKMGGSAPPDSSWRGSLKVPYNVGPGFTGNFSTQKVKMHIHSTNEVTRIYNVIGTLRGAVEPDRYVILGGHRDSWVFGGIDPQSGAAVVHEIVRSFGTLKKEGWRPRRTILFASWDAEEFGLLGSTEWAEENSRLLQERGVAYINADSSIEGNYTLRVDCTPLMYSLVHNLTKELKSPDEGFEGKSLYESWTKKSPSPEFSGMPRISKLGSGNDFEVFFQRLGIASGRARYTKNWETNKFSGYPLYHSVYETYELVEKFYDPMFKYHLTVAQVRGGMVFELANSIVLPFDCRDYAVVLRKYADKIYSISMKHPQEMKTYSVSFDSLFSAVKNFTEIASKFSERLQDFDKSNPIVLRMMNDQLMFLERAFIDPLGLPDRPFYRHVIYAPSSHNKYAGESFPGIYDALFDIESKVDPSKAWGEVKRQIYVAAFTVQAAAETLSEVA
T2 sequence (P30273 19-86 partner): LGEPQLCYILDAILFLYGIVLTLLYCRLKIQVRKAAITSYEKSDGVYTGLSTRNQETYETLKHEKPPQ
T1 sequence (P12314 16-374): as the sequence (P12314 16-374) above
T1 sequence (P30273 19-86 partner): as the sequence (P30273 19-86 partner) above

## CC(=O)N[C@H](C(=O)N[C@@H](CC(N)=O)C(=O)N[C@@H](CO)C(=O)N[C@H]1CSSC[C@@H](C(=O)NCC(=O)N[C@@H](CC(=O)O)C(=O)N[C@@H](CC(=O)O)C(=O)N[C@@H](CCCCNC(=O)CCCC[C@@H]2SC[C@@H]3NC(=O)N[C@@H]32)C(=O)NCCCCCC(=O)NCCCCCC(=O)NCCCCCC(=O)NCCCCCC(=O)NCCCCCC(=O)N[C@@H](CCCCNC(=O)CCCCc2cn(CCCC[C@H](NC(=O)N[C@@H](CCC(=O)O)C(=O)O)C(=O)O)nn2)C(=O)NCC(N)=O)NC(=O)CNC(=O)[C@H](CC(C)C)NC(=O)[C@H](CC(C)C)NC(=O)[C@H](CC(N)=O)NC(=O)[C@@H]2CCCN2C(=O)[C@H](CC(C)C)NC(=O)[C@H](CC(C)C)NC(=O)[C@H](CC(C)C)NC1=O)C(C)C [SyAM-P1]
[1]
  binding to FcγRI on IIA1.6 cells: capability to bind to its respective targets
[2]
  phagocytosis of RM1.PGLS cells (in words): unable to induce any immune responses
[3]
  concentration at which superoxide burst is induced: 100 nM
[4]
  superoxide burst against RM1.PGLS cells (in words): unable to induce any immune responses
[5]
  ternary complex formation: mediated through SyAM-P1
[6]
  binding to PSMA on RM1.PGLS cells: capability to bind to its respective targets
